Source: the supplement of paper PMC12463676, “Small-molecule dissolution of stress granules by redox modulation benefits ALS models” (Nature Chemical Biology, 2025)

Experiments:
potassium arsenate = compound: O=[As]([O-])(O)O.[K+] [potassium arsenate]; experiment: thermal stability z-score vs DMSO; higher = more thermally stabilized by treatment; settings: HeLa; arsenate concentration 1 mM
Procedure: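 Cellular thermal proteome profiling in HeLa cells treated with 1 mM arsenate for 1 h (DMSO pretreatment), heated to ten temperatures (37-66.3 °C). Soluble protein was quantified by TMT mass spectrometry relative to DMSO controls; the thermal stability score was transformed to a z-score; mean of n = 3 experiments.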

lipoamide = compound: NC(=O)CCCCC1CCSS1 [lipoamide]; experiment: as above; settings: HeLa, lipoamide concentration 100 µM
Procedure: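 Cellular thermal proteome profiling in HeLa cells. Cells were treated with 100 µM lipoamide for 1 h, with or without 1 mM arsenate for a further 1 h, then heated to ten temperatures (37-66.3 °C), and soluble protein was quantified by TMT mass spectrometry relative to 0.1% DMSO controls. The thermal stability score (sum of log2 fold changes minus the abundance score) was transformed to a z-score; mean of n = 3 experiments.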

[1] = arsenate co-treatment: 1 mM arsenate 1 h
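Further: each temperature applied for 3 min, abundance score taken as mean log2 fold change at the two lowest temperatures, z-score obtained by mean subtraction and division by SD.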

## BCKDHB (UniProt P21953)
Potassium arsenate
  thermal stability z-score: 1.11
lipoamide; [1]
  thermal stability z-score: 0.134
lipoamide; arsenate co-treatment: none
  thermal stability z-score: 0.149

## ILF2 (UniProt Q12905)
Potassium arsenate
  thermal stability z-score: -1.96
lipoamide; [1]
  thermal stability z-score: 0.0392
lipoamide; arsenate co-treatment: none
  thermal stability z-score: 0.153

## DENND4C (UniProt Q5VZ89)
Potassium arsenate
  thermal stability z-score: 0.337
lipoamide; [1]
  thermal stability z-score: 0.201
lipoamide; arsenate co-treatment: none
  thermal stability z-score: 0.677

## ATG13 (UniProt O75143)
Potassium arsenate
  thermal stability z-score: 0.699
lipoamide; [1]
  thermal stability z-score: -0.00854
lipoamide; arsenate co-treatment: none
  thermal stability z-score: 0.21

## MAP2K2 (UniProt P36507)
Sequence of UniProt P36507 (P36507 whole entry): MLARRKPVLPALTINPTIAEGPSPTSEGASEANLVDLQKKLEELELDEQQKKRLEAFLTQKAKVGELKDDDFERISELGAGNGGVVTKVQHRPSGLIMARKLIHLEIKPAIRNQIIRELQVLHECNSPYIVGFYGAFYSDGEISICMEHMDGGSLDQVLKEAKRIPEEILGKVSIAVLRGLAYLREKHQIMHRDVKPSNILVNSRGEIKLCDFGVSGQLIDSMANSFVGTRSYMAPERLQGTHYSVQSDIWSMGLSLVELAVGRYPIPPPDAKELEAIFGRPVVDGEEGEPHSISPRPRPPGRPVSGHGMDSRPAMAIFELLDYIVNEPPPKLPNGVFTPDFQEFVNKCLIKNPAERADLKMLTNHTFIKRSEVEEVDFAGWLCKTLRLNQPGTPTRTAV
Potassium arsenate
  thermal stability z-score: 0.0169
lipoamide; [1]
  thermal stability z-score: -0.441
lipoamide; arsenate co-treatment: none
  thermal stability z-score: -0.022

## HN1 (UniProt Q9UK76)
Potassium arsenate
  thermal stability z-score: 0.518
lipoamide; [1]
  thermal stability z-score: 1.68
lipoamide; arsenate co-treatment: none
  thermal stability z-score: 1.13

## STX6 (UniProt O43752)
Potassium arsenate
  thermal stability z-score: -0.486
lipoamide; [1]
  thermal stability z-score: -0.996
lipoamide; arsenate co-treatment: none
  thermal stability z-score: -0.712

## DHX57 (UniProt Q6P158)
Potassium arsenate
  thermal stability z-score: -0.286
lipoamide; [1]
  thermal stability z-score: -0.125
lipoamide; arsenate co-treatment: none
  thermal stability z-score: -0.0979

## HPS6 (UniProt Q86YV9)
Potassium arsenate
  thermal stability z-score: -0.0451
lipoamide; [1]
  thermal stability z-score: 0.00908
lipoamide; arsenate co-treatment: none
  thermal stability z-score: 0.132

## SNCA (UniProt P37840)
Potassium arsenate
  thermal stability z-score: -0.263
lipoamide; [1]
  thermal stability z-score: 0.553
lipoamide; arsenate co-treatment: none
  thermal stability z-score: 0.198

## LSR (UniProt Q86X29)
Potassium arsenate
  thermal stability z-score: -0.177
lipoamide; [1]
  thermal stability z-score: 0.221
lipoamide; arsenate co-treatment: none
  thermal stability z-score: -0.243

## POLR2D (UniProt O15514)
Potassium arsenate
  thermal stability z-score: -0.735
lipoamide; [1]
  thermal stability z-score: 1.21
lipoamide; arsenate co-treatment: none
  thermal stability z-score: 0.628

## PI4KB (UniProt Q9UBF8)
Potassium arsenate
  thermal stability z-score: 0.692
lipoamide; [1]
  thermal stability z-score: -0.62
lipoamide; arsenate co-treatment: none
  thermal stability z-score: 0.386

## C1ORF131 (UniProt Q8NDD1)
Potassium arsenate
  thermal stability z-score: -0.733
lipoamide; [1]
  thermal stability z-score: 1.04
lipoamide; arsenate co-treatment: none
  thermal stability z-score: -0.388

## SLC39A7 (UniProt Q92504)
Potassium arsenate
  thermal stability z-score: -0.00591
lipoamide; [1]
  thermal stability z-score: -1.65
lipoamide; arsenate co-treatment: none
  thermal stability z-score: -0.943

## ITGA6 (UniProt P23229)
Potassium arsenate
  thermal stability z-score: 0.156
lipoamide; [1]
  thermal stability z-score: -0.0761
lipoamide; arsenate co-treatment: none
  thermal stability z-score: 0.174

## TARSL2 (UniProt A2RTX5)
Potassium arsenate
  thermal stability z-score: 0.0722
lipoamide; [1]
  thermal stability z-score: -0.396
lipoamide; arsenate co-treatment: none
  thermal stability z-score: 0.561

## ATXN2L (UniProt Q8WWM7)
Sequence of UniProt Q8WWM7 (Q8WWM7 whole entry): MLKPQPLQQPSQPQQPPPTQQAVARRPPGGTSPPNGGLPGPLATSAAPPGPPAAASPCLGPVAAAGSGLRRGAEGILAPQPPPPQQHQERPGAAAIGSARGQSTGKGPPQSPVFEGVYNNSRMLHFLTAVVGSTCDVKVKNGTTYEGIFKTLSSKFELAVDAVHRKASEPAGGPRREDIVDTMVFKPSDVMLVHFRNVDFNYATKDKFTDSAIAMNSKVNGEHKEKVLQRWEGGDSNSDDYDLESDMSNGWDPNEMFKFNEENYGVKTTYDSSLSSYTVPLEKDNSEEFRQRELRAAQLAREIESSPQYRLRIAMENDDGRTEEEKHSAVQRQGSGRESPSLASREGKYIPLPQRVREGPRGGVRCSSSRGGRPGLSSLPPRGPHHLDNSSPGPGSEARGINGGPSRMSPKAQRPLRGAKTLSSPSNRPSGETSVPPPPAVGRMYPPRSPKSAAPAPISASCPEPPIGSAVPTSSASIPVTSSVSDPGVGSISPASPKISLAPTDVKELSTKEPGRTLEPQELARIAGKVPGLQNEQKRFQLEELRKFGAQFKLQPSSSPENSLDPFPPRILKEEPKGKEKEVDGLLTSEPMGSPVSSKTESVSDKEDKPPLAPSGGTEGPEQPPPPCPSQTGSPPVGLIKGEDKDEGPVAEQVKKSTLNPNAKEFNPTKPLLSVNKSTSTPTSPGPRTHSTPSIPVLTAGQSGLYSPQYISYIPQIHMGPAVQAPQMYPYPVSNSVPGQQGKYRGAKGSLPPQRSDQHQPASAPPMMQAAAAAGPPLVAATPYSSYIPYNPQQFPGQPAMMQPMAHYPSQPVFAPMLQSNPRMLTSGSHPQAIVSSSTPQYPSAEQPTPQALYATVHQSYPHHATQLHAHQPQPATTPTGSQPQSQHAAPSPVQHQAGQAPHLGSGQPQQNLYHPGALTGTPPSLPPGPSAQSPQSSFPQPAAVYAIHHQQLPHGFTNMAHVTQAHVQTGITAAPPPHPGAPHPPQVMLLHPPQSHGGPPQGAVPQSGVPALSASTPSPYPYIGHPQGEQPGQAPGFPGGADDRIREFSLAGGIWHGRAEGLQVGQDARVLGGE
Potassium arsenate
  thermal stability z-score: -0.118
lipoamide; [1]
  thermal stability z-score: 0.44
lipoamide; arsenate co-treatment: none
  thermal stability z-score: 0.347

## WLS (UniProt Q5T9L3)
Potassium arsenate
  thermal stability z-score: 0.0899
lipoamide; [1]
  thermal stability z-score: -2.04
lipoamide; arsenate co-treatment: none
  thermal stability z-score: -1.12

## LENG9 (UniProt Q96B70)
Sequence of UniProt Q96B70 (Q96B70 whole entry): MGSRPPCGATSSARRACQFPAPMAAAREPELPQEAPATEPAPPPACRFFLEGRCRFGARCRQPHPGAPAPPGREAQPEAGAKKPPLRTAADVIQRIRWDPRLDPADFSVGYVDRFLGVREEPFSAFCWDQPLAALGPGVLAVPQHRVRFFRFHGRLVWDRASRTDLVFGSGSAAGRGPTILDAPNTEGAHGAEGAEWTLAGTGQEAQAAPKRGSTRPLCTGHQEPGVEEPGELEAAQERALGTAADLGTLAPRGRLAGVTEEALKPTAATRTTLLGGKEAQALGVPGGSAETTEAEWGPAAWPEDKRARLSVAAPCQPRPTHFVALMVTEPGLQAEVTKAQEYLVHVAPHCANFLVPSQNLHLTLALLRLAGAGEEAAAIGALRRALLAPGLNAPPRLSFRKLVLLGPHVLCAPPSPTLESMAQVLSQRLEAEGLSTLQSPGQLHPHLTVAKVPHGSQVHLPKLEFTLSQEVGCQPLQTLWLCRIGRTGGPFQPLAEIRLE
Potassium arsenate
  thermal stability z-score: -0.307
lipoamide; [1]
  thermal stability z-score: -0.216
lipoamide; arsenate co-treatment: none
  thermal stability z-score: -0.193

## AHCYL1 (UniProt O43865)
Potassium arsenate
  thermal stability z-score: -6.61
lipoamide; [1]
  thermal stability z-score: 0.156
lipoamide; arsenate co-treatment: none
  thermal stability z-score: -0.134

## PDXK (UniProt O00764)
Potassium arsenate
  thermal stability z-score: -0.829
lipoamide; [1]
  thermal stability z-score: -0.427
lipoamide; arsenate co-treatment: none
  thermal stability z-score: -0.245

## SUCLG2 (UniProt Q96I99)
Potassium arsenate
  thermal stability z-score: 0.106
lipoamide; [1]
  thermal stability z-score: 0.0359
lipoamide; arsenate co-treatment: none
  thermal stability z-score: 0.172

## CMTR1 (UniProt Q8N1G2)
Potassium arsenate
  thermal stability z-score: 1.15
lipoamide; [1]
  thermal stability z-score: -0.292
lipoamide; arsenate co-treatment: none
  thermal stability z-score: 0.406

## XRCC1 (UniProt P18887)
Potassium arsenate
  thermal stability z-score: -0.417
lipoamide; [1]
  thermal stability z-score: -0.0745
lipoamide; arsenate co-treatment: none
  thermal stability z-score: 0.0492

## PRKACB (UniProt P22694)
Potassium arsenate
  thermal stability z-score: 0.18
lipoamide; [1]
  thermal stability z-score: -0.58
lipoamide; arsenate co-treatment: none
  thermal stability z-score: -0.36

## CCT8 (UniProt P50990)
Sequence of UniProt P50990 (P50990 whole entry): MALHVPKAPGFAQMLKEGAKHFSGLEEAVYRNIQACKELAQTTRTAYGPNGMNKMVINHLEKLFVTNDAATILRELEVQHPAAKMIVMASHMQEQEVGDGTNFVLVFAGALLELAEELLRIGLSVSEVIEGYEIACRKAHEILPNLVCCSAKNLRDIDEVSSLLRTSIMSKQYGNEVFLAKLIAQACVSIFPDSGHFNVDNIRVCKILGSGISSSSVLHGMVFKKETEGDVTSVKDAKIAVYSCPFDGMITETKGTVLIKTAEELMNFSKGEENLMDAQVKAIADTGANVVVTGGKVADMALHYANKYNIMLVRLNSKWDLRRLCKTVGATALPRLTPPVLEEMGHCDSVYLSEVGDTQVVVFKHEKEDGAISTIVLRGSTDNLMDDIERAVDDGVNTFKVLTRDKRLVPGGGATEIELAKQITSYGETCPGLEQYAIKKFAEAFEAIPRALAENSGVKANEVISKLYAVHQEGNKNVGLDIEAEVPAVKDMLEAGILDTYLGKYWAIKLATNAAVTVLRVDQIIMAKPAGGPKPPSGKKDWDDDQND
Potassium arsenate
  thermal stability z-score: -0.245
lipoamide; [1]
  thermal stability z-score: -0.0223
lipoamide; arsenate co-treatment: none
  thermal stability z-score: -0.0937

## NAPA (UniProt P54920)
Potassium arsenate
  thermal stability z-score: 1.02
lipoamide; [1]
  thermal stability z-score: 0.374
lipoamide; arsenate co-treatment: none
  thermal stability z-score: 0.143

## C9ORF142 (UniProt Q9BUH6)
Sequence of UniProt Q9BUH6 (Q9BUH6 whole entry): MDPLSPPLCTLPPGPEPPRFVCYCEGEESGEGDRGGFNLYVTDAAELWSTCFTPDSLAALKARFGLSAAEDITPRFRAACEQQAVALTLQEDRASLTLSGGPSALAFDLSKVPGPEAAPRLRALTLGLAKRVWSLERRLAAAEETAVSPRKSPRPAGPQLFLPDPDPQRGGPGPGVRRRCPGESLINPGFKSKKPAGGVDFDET
Potassium arsenate
  thermal stability z-score: -0.706
lipoamide; [1]
  thermal stability z-score: -0.55
lipoamide; arsenate co-treatment: none
  thermal stability z-score: -0.635

## TNFRSF10B (UniProt O14763)
Sequence of UniProt O14763 (O14763 whole entry): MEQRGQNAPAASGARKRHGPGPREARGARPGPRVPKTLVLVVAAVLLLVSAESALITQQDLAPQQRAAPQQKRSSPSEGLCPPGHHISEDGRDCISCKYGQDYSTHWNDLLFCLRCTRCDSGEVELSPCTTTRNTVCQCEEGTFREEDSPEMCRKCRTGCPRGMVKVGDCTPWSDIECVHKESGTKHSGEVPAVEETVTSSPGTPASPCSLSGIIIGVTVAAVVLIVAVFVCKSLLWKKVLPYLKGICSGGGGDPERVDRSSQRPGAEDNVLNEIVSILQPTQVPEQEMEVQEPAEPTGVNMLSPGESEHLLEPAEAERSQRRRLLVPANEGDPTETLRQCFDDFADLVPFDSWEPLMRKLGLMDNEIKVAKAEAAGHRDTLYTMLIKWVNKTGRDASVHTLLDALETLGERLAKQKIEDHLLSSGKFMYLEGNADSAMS
Potassium arsenate
  thermal stability z-score: 0.582
lipoamide; [1]
  thermal stability z-score: -0.753
lipoamide; arsenate co-treatment: none
  thermal stability z-score: -0.414

## PPID (UniProt Q08752)
Potassium arsenate
  thermal stability z-score: 0.368
lipoamide; [1]
  thermal stability z-score: 0.244
lipoamide; arsenate co-treatment: none
  thermal stability z-score: -0.234

## GEMIN8 (UniProt Q9NWZ8)
Potassium arsenate
  thermal stability z-score: -0.0475
lipoamide; [1]
  thermal stability z-score: 0.0342
lipoamide; arsenate co-treatment: none
  thermal stability z-score: -0.0734

## RPS21 (UniProt P63220)
Potassium arsenate
  thermal stability z-score: -0.196
lipoamide; [1]
  thermal stability z-score: 0.253
lipoamide; arsenate co-treatment: none
  thermal stability z-score: 0.512

## SRSF4 (UniProt Q08170)
Potassium arsenate
  thermal stability z-score: -0.0178
lipoamide; [1]
  thermal stability z-score: 1.95
lipoamide; arsenate co-treatment: none
  thermal stability z-score: 1.28

## SF3B3 (UniProt Q15393)
Sequence of UniProt Q15393 (Q15393 whole entry): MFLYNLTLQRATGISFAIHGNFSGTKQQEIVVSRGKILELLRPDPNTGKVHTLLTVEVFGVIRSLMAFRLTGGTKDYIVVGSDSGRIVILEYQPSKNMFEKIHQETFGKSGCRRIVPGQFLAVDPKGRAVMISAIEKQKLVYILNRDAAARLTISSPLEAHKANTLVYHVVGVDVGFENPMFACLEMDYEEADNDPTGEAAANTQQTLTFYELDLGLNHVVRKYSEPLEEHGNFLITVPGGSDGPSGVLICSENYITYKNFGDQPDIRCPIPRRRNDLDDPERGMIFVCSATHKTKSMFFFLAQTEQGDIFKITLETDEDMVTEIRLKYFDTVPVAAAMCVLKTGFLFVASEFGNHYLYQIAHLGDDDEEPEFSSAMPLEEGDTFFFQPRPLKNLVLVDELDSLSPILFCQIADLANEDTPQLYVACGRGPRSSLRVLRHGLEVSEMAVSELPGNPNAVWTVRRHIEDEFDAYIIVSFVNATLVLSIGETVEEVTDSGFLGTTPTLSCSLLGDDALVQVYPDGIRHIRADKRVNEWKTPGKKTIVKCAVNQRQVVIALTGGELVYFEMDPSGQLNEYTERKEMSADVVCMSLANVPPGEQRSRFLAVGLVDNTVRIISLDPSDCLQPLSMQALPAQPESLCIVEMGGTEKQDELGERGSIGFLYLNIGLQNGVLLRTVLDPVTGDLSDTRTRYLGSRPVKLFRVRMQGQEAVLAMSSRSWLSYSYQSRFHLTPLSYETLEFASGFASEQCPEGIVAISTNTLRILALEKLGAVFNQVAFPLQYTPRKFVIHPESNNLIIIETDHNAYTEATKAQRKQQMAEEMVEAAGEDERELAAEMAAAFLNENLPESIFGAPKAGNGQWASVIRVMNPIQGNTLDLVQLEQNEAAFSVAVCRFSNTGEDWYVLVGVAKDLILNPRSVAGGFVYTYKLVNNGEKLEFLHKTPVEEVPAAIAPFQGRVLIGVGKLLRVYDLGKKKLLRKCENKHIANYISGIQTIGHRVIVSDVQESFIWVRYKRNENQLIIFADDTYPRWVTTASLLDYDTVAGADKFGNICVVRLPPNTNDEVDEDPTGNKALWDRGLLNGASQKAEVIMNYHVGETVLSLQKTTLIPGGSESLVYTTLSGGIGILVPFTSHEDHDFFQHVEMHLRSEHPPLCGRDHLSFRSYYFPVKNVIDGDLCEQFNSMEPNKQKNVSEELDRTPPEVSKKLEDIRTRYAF
Potassium arsenate
  thermal stability z-score: -0.681
lipoamide; [1]
  thermal stability z-score: 1.49
lipoamide; arsenate co-treatment: none
  thermal stability z-score: 0.828

## HAUS5 (UniProt O94927)
Sequence of UniProt O94927 (O94927 whole entry): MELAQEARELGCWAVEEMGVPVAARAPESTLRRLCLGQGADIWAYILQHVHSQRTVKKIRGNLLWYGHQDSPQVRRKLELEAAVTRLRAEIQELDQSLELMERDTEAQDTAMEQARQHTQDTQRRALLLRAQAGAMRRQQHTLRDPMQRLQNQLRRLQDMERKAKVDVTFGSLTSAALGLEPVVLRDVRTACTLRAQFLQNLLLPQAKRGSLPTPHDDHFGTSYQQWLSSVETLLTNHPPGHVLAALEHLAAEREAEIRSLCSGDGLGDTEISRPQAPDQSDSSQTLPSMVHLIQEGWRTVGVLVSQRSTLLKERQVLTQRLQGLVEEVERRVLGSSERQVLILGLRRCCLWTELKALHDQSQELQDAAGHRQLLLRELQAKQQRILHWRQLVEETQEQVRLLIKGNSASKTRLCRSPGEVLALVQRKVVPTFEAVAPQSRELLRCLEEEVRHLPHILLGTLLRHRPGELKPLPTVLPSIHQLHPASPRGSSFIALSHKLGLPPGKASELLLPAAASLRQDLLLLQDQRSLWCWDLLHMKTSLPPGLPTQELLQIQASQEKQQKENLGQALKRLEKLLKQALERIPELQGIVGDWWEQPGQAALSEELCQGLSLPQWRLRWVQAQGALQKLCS
Potassium arsenate
  thermal stability z-score: -0.0216
lipoamide; [1]
  thermal stability z-score: 0.0805
lipoamide; arsenate co-treatment: none
  thermal stability z-score: 0.111
